Source: PMC6333900, “Discovery of peptide ligands targeting a specific ubiquitin-like domain–binding site in the deubiquitinase USP11” (The Journal of Biological Chemistry, 2018)
No end group written: not given here.

What follows are substances tested on USP11_DU (USP11 N-terminal DUSP–UBL domains) (assay: Next-generation phage display enrichment (two-proportion Z test, round 3 of panning)). Details: enrichment on USP11_DU vs unrelated His-tagged control protein (flagellin fragment), after three rounds of panning, gpVIII phage-displayed nonapeptide.
Assay type: binding, human
From the text: An NGPD approach was applied to the identification of USP11 ligands as schematically depicted in Fig. 1B. A randomized linear peptide library fused to the gpVIII protein was used to isolate peptides that interact with the USP11 N-terminal DU domains (DUSP and UBL domains in tandem; USP11_DU; Fig. 1A). After three biopanning rounds, phage ssDNA was extracted and purified, and peptide sequences were amplified and deep-sequenced. […] A graphical representation of the residue frequency within the motifs as computed by the Multiple EM for Motif Elicitation (MEME) algorithm ([33]) is shown in Fig. 1C. The thermodynamic binding parameters of synthetic peptides representative of both motifs, including the N-terminal phage protein sequence (AEGEF), AEGEFYKLKIRTPQ (referred to as FYLIR peptide) and AEGEFLELLKASRW (referred to as LXLL peptide), were determined by isothermal titration calorimetry (ITC). Peptides harboring either motif bound USP11_DU with dissociation constants of about 10 μM (8.86 ± 1.13 μM for AEGEFYKLKIRTPQ and 6.92 ± 2.25 μM for AEGEFLELLKASRW; Fig. 1D).
The peptide phage display library used for biopanning experiments (kindly provided by Professor Franco Felici, University of Molise, Italy; designated PC89VIII) is based on the PC89 phagemid vector ([50]) with a nonapeptide inserted at the N terminus of the phage major coat protein pVIII and a reported diversity of ∼10^7. The library was transformed into Escherichia coli TG1 supE thi-1 Δ(lac-proAB) Δ(mcrB-hsdSM)5(rK-mK) [F′traD36 proAB lacIqZΔM15], which was the strain used for all manipulations and phage rescue. Libraries were grown to mid-log phase (OD600 ∼0.6), superinfected with M13KO7 helper phage (Pharmacia LKB), and incubated overnight at 30 °C (250 rpm) to produce phage particles. Phage was harvested, and PEG was precipitated only for the first panning round. For all subsequent selection rounds (three in total), supernatant phage was used directly. Biopanning was carried out once, as described previously ([51]), and proteins were immobilized on cobalt beads (Dynabeads) (solution phase panning). A total of 100 μg of USP11_DU was immobilized for each round. In parallel, the phage isolated at each round against USP11_DU was also bound against an unrelated His-tagged control protein under the same conditions. This control protein was a fragment of flagellin, a virulence factor from E. coli O157:H7, amino acid residues 164–495, and the protein was used as it is unrelated to the target proteins and carried a C-terminal His tag. Bound phage were washed 10–20 times with PBS (10 mM phosphate buffer, pH 7.2–7.4, with 150 mM NaCl) plus 0.1% (v/v) Tween (PBST) and then PBS. Bound phage were eluted from the beads with 100 mM triethylamine and neutralized in 1 M Tris, pH 7.4. Half of the eluted phage was used for infection of TG1 cells, which were plated and used to make glycerol stocks.
The ssDNA of eluted phage for round 3 of selection against the USP11_DU target and the control protein was extracted and purified using the QIAprep Spin M13 kit. Subsequently, phage ssDNA was precipitated with ethanol and stored as a dry pellet to be used as a PCR template. For the amplification of the unknown peptide sequences, a two-step PCR strategy was followed, as described previously ([32]). The strategy produced an amplicon of ∼330 bp, and each sample contained a unique barcoded sequence. Each sample's DNA concentration was determined by the Agilent 2100 Bioanalyzer using the DNA 1000 kit. Based on the concentration readings for the peak of interest, samples were pooled in equal amounts, purified by the Agencourt AMPure XP kit, and run on a 2% (w/v) agarose gel. The band of ∼330 bp was excised from the gel and purified using the NucleoSpin Gel and PCR Clean-up kit. Finally, the concentration and size of the pooled DNA were measured on a Bioanalyzer. NGPD was carried out once for each round of panning. […]

Row | Substance | Z score
1 | YKLKTRTPQ | 4.5
2 | YKLKIRTLQ | 3.7
3 | LALLMRQRP | 19.0
4 | LELLKASRW | 108.7
5 | LELLEASRW | 5.0
6 | LELLKAPRW | 3.6
7 | YELKIRTPQ | 4.6
8 | LELLKASRR | 4.8
9 | PQLLALSRT | 3.9
10 | NKLKIRTPQ | 2.8
11 | LGLLKASRW | 4.4
12 | LELLKVSRW | 3.0
13 | LELLKALRW | 3.0
14 | LQLPALSRT | 4.1
15 | LELLRASRW | 4.6
16 | LELVCRSPV | 2.8
17 | LELVRHSPV | 3.0
18 | LELVRRSSV | 3.0
19 | YKLKIRTPQ | 168.4
20 | PELLKASRW | 3.6
21 | LELVHRSPV | 4.1
22 | LRLLALSRT | 4.4
23 | LELARRSPV | 4.1
24 | YKLKIRAPQ | 7.9

Row | Substance | Z score
25 | YKLKVRTPQ | 5.7
26 | LQLLALSRA | 3.6
27 | LQLLAPSRT | 3.0
28 | LELVRCSPV | 3.2
29 | YKLKIRTSQ | 3.6
30 | LELVRRSPA | 3.7
31 | LAMLTRGRP | 3.0
32 | LELPKASRW | 4.5
33 | YKLEIRTPQ | 5.6
34 | LESLKASRW | 4.9
35 | CKLKIRTPQ | 5.6
36 | LQLLALSRT | 70.9
37 | YKLKIRTPR | 7.1
38 | LEPVRRSPV | 4.1
39 | YKLKIRTPL | 3.2
40 | HKLKIRTPQ | 5.5
41 | YRLKIRTPQ | 5.5
42 | LELVRRSPV | 89.0
43 | YKLRIRTPQ | 5.8
44 | YKLKIQTPQ | 4.0
45 | YKPKIRTPQ | 6.6
46 | YKLKIRIPQ | 4.4
47 | LALIKRQPL | 18.1

Each substance was assayed against T1, full-length USP11 (FL-USP11) (Homo sapiens, UniProt P51784) (assay: Isothermal titration calorimetry, full-length USP11). Details: ITC, 30 μM protein in PBS, 25 °C, one site binding model; n=1; read-out: dissociation constant.
T1 construct: FYLIR peptide (AEGEFYKLKIRTPR) titrated into full-length USP11 (FL-USP11); His tag (inferred from nickel-chelate purification and the pColdI vector); made in house; host or cells: E. coli BL21-CodonPlus (pColdI), grown 72 h at 10 °C
Procedure: (§1) ITC data were measured on a MicroCal VP-ITC or a PEAQ ITC instrument to obtain the binding parameters for peptide ligand–USP11_DU interactions. The sample cell contained 30 μM protein in PBS buffer. Each peptide (at a concentration of 300 or 600 μM) was titrated into the sample cell in 8-μl (VP-ITC) or 2-μl (PEAK ITC) injections at a temperature of 25 °C. Spacing was typically 180 s, and a stirring speed of 300 rpm was used. The data were analyzed using NITPIC ([52]), SEDPHAT ([53]), and GUSSI software. ITC experiments were repeated at least twice independently apart from the USP15_DU, USP4_DU, and the FL-USP11 titrations with FYLIR peptide, which were conducted once.

T1 sequence (P51784 44-963 limits assumed): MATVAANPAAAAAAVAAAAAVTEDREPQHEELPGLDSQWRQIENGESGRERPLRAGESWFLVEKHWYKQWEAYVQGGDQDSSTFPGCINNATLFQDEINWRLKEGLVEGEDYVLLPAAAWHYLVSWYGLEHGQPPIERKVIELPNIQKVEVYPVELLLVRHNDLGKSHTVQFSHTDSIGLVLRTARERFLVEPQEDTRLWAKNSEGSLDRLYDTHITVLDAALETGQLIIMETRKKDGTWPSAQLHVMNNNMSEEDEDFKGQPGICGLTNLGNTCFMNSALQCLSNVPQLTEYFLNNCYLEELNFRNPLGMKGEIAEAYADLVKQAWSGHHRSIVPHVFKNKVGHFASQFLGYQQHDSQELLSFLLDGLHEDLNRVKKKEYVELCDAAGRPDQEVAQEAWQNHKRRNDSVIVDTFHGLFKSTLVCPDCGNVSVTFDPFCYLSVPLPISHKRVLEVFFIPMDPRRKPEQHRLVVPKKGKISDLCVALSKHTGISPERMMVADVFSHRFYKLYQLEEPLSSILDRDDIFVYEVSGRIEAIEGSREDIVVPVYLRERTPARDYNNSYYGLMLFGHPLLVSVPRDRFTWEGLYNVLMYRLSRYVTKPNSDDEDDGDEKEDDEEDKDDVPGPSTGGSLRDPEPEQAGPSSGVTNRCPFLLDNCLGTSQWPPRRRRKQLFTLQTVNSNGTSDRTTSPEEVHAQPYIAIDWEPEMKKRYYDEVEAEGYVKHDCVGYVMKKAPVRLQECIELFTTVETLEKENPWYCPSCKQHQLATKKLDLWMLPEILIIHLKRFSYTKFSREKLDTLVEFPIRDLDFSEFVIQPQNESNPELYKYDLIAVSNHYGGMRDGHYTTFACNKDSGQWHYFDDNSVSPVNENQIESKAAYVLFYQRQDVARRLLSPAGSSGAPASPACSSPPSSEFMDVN

Row | Substance | Kd [µM]
48 | AEGEFYKLKIRTPR-NH2 [AEGEFYKLKIRTPR] | ~12.5

Each substance was assayed on USP11_DU^L208F/S242R (assay: Isothermal titration calorimetry, USP11_DU double mutant). Details: 30 μM protein in PBS, peptide 300 or 600 μM, 25 °C, pocket-deficient double mutant, repeated at least twice.
Assay type: binding, human
Procedure: as §1

Row | Substance | binding by ITC
49 | AEGEFLRLLNFTKP [peptide harboring motif 2 (LXLL)] | abolished

The substances below were run on Panc1 cells (assay: Cell viability (Presto Blue assay), Panc1). Details: Panc1, up to 10 μM, 24 h, Presto Blue, n=4 biological repeats (Fig. S6).
Assay type: cell-based, human
Procedure: Cells were plated in 96-well plates (2.5 × 10^4 cells/well) and treated with GET-FYLIR (0–50 μM) for 24 h. Cells were also treated with GET-Scrambled as a control. After treatment, cells were washed with PBS and then incubated for 15 min at 37 °C with a 100-μl Presto Blue solution (10% Presto Blue, Invitrogen in Hanks' balanced salt solution, Sigma). Change in the fluorescence was measured using a plate reader with the excitation/emission wavelengths set at 560/590 nm (Infinite® 200 PRO, TECAN), with untreated cells used as a control. All data sets were combined for the statistical analysis. A Sidak's multiple comparisons test was applied. N refers to the number of biological replicates.

Row | Substance | cell viability
50 | APKFEIRRGTYKLE [GET-Scrambled] | no significant effect

These substances were tested on Panc1 cells (assay: Cell uptake (flow cytometry), Panc1). Details: 1 μM and 5 μM, 1 or 24 h, flow cytometry.
Assay type: cell-based, human
Procedure: Cells treated with GET-FYLIR or GET-Scrambled were analyzed on an Astrios cell sorter using a 488-nm […] laser (40,000 cells; gated on live cells by forward/side scatter). Gmean was used as the average cell intensity. All data sets were combined for the statistical analysis. A Sidak's multiple comparisons test was applied. N refers to the number of biological replicates.

Row | Substance | uptake profile, NIH3T3 versus Panc1
51 | APKFEIRRGTYKLE [GET-Scrambled] | no difference in the uptake profile between NIH3T3 and Panc1 cells

Same assay, conditions: NIH3T3 and Panc1, 1 and 5 μM, flow cytometry

Row | Substance | cellular delivery
52 | APKFEIRRGTYKLE [GET-Scrambled] | efficiently delivered
